Experimental data: patent publication US11795151B2, “Benzotriazole compound” (MIYOSHI OIL & FAT CO., LTD., priority 2017, dated 2023)

What was measured:
Type in all cases: physicochemical
[1] = Evaluation of UV absorption performance (1): absorbance spectra in chloroform; details: 100 μM; for Absorbance at absorption peak in wavelength region of 350 to 390 nm / Absorbance at peak end / Absorption wavelength at peak end / Molar extinction coefficient at peak (maximum molar extinction coefficient: εmax) / Wave length at absorption peak in wavelength region of 350 to 390 nm (maximum absorption wavelength: λmax): 10-mm quartz cell; for Absolute value of slope of absorption peak on long wavelength side in wavelength region of 350 to 390 nm: Equation 2
Procedure: Compounds 1 to 12 were diluted with 100 μM of chloroform, placed in a 10-mm quartz cell, and the absorbance spectra were measured using an ultraviolet-visible spectrophotometer (V-550, manufactured by JASCO Corporation)(FIGS. 1 to 12).
The absorption peak (maximum absorption wavelength: λmax) and absorbance in the wavelength range of 350 to 390 nm were read from the absorption spectra of Compounds 1 to 12, and the molar extinction coefficient of the peak (maximum molar extinction coefficient: εmax) was obtained by the following equation (able 1). Molar extinction coefficient:εmax(L/(mol·cm))=A:Absorbance/[c:Mol concentration(mol/L)×1:Cell optical length(cm)] [Equation 1]
In addition, from the absorption spectra of Compounds 1 to 12, assuming that an intersection of a long-wavelength side absorption spectrum in the absorption peak at 350 to 390 nm and a baseline (a line where the slope of the absorption spectrum at 380 to 500 nm is zero) is set as a […] (for example: FIG. 1), the absolute value of the slope of the absorption peak on the long-wavelength side in the wavelength region at 350 to 390 nm was obtained by the following equation: |Slope of absorption peak on long wavelength side in wavelength region of 350 to 390 nm|=|(Absorbance at peak end−Absorbance at absorption peak in wavelength region of 350 to 390 nm)/(Absorption wavelength at peak end−Wave length at absorption peak in wavelength region of 350 to 390 nm)| [Equation 2]

[2] = Maximum solubility in various monomers; details: acrylonitrile as a vinyl-based monomer; same evaluation method
From the text: With the same evaluation method, 2 wt % of Compound 1, 5 wt % of Compound 2, 5 wt % of Compound 3, and 1 wt % of Compound 4 were each soluble in acrylonitrile as a vinyl-based monomer as well.

[3] = Maximum solubility in various monomers; details: room temperature (20 to 30° C.), 4 hours
[4] = Evaluation of 5% weight reduction temperature (1) (TG/DTA); details: temperature increasing rate 10° C./min, 25° C. to 550° C.
Procedure: (§1) Compounds 1 to 8 and 10 to 12 were measured using a differential thermogravimetric simultaneous measurement device (TG/DTA6200, manufactured by SII Corporation) at a temperature increasing rate of 10° C./min and within a measurement range of 25° C. to 550° C., and the temperature at which 5 wt % reduction as the weight change (TG) took place was read (Table 6).

[5] = Evaluation of 5% weight reduction temperature (2) (TG/DTA); details: temperature increasing rate 10° C./min, 25° C. to 550° C.
Procedure: as §1, with “The compounds of the present invention” for “Compounds 1 to 8 and 10 to 12”, “w” for “wt”, “9).” for “6).”

[6] = Evaluation of UV absorption performance (2): absorbance spectra in chloroform; details: 100 μM; for Absorbance at absoprtion peak in wavelength region of 350 to 390 nm / Absorbance at peak end / Absorption wavelength at peak end / Molar extinction coefficient at peak (maximum molar extinction coefficient: εmax) / Wave length at absorption peak in wavelength region of 350 to 390 nm (maximum absorption wavelength: λmax): 10-mm quartz cell; for Absolute value of slope of absorption peak on long wavelength side in wavelength region of 350 to 390 nm: Equation 4
Procedure: Compounds 11 to 28 were diluted with 100 μM of chloroform and placed in a 10-mm quartz cell, and the absorbance spectra were measured using an ultraviolet-visible spectrophotometer (V-550, manufactured by JASCO Corporation)(FIGS. 11,12,14 to 29).
The absorption peak (maximum absorption wavelength: max) and absorbance in the wavelength range of 350 to 390 nm were read from the absorption spectra of Compounds 11 to 28, and a molar extinction coefficient (maximum molar extinction coefficient: εmax) of the peak was obtained by the following formula (Table 7): Molar extinction coefficient:εmax(L/(mol·cm))=A:Absorbance/[c:Mol concentration(mol/L)×1:Cell optical length(cm)] [Equation 3]
In addition, from the absorption spectra of Compounds 11 to 28, assuming that an intersection of a long-wavelength side absorption spectrum in the absorption peak at 350 to 390 nm and a baseline (a line where the slope of the absorption spectrum at […] is zero) is set as a peak end (for example: FIG. 1), the absolute value of the slope of the absorption peak on the long-wavelength side in the wavelength region at 350 to 390 nm was obtained by the following equation (Table 8): |Slope of absorption peak on long wavelength side in wavelength region of 350 to 390n|=|(Absorbance at peak end−Absorbance at absorption peak in wavelength region of 350 to 390 nm)/(Absorption wavelength at peak end−Wave length at absorption peak in wavelength region of 350 to 390 nm)| [Equation 4]

Row | Structure (SMILES) | Absorbance at absorption peak in wavelength region of 350 to 390 nm [1] | Absorbance at peak end [1] | Absorption wavelength at peak end [1] [nm] | Molar extinction coefficient at peak (maximum molar extinction coefficient: εmax) [1] [L/mol/cm] | Wave length at absorption peak in wavelength region of 350 to 390 nm (maximum absorption wavelength: λmax) [1] [nm] | Concentration soluble in acrylonitrile [2] [wt %] | Maximum solubility ([3]; Methyl (meth)acrylate) [wt %] | Maximum solubility ([3]; Styrene) [wt %] | 5% weight reduction temperature [4] [°C] | Maximum solubility ([3]; Dimethylacrylamide) [wt %] | Maximum solubility ([3]; Hexadiene) [wt %] | Maximum solubility ([3]; Vinyl acetate) [wt %] | 5% weight reduction temperature [5] [°C] | Absolute value of slope of absorption peak on long wavelength side in wavelength region of 350 to 390 nm [1] | Absorbance at absoprtion peak in wavelength region of 350 to 390 nm [6] | Absorbance at peak end [6] | Absorption wavelength at peak end [6] [nm] | Molar extinction coefficient at peak (maximum molar extinction coefficient: εmax) [6] [L/mol/cm] | Wave length at absorption peak in wavelength region of 350 to 390 nm (maximum absorption wavelength: λmax) [6] [nm] | Absolute value of slope of absorption peak on long wavelength side in wavelength region of 350 to 390 nm [6]
1 | C=C(C)C(=O)OCCCCCCSc1ccc2nn(-c3cc(C)cc(C(C)(C)C)c3O)nc2c1 [Compound 4] | 2.24 | 0.00762 | 420 | 22400 | 368 | 1 | 12 | 25 |  |  |  |  |  |  |  |  |  |  |  | 
2 | C=C(C)C(=O)OCCSc1ccc2nn(-c3cc(C)cc(C(C)(C)C)c3O)nc2c1 [Compound 2] | 2.25 | 0.00727 | 421 | 21400 | 365 | 5 | 20 | 25 | 285 | 15 | 3 | 15 |  |  |  |  |  |  |  | 
3 | CCCCCCSc1ccc2nn(-c3cc(C)cc(C(C)(C)C)c3O)nc2c1 [Compound 29] |  |  |  |  |  |  |  |  |  |  |  |  | 277 |  |  |  |  |  |  | 
4 | Cc1ccc(Sc2ccc3nn(-c4cc(C)cc(C(C)(C)C)c4O)nc3c2)cc1 [Compound 30] |  |  |  |  |  |  |  |  |  |  |  |  | 293 |  |  |  |  |  |  | 
5 | C=C(C)C(=O)OCCCSc1ccc2nn(-c3cc(C)cc(C(C)(C)C)c3O)nc2c1 [Compound 3] | 2.18 | 0.00692 | 419 | 21600 | 367 | 5 | 20 | 25 | 292 | 11 | 5 | 12 |  |  |  |  |  |  |  | 
6 | C=CC(=O)OCCCCCCSc1ccc2nn(-c3cc(C)cc(C(C)(C)C)c3O)nc2c1 [Compound 1] | 2.26 | 0.00766 | 422 | 22600 | 368 | 2 | 20 | 25 |  | 20 | 10 | 15 |  |  |  |  |  |  |  | 
7 | C=CCSc1ccc2nn(-c3cc(C)cc(C(C)(C)C)c3O)nc2c1 [Compound 10, reference compound] | 1.76 | 0.00722 | 430 | 17600 | 375 |  | ≤10 | ≤20 | 252 | ≤9 | 1 | ≤10 |  | 0.032 |  |  |  |  |  | 

Continued, values first:

Row | Absorbance at absorption peak in wavelength region of 350 to 390 nm [1] | Absorbance at peak end [1] | Absorption wavelength at peak end [1] [nm] | Molar extinction coefficient at peak (maximum molar extinction coefficient: εmax) [1] [L/mol/cm] | Wave length at absorption peak in wavelength region of 350 to 390 nm (maximum absorption wavelength: λmax) [1] [nm] | Concentration soluble in acrylonitrile [2] [wt %] | Maximum solubility ([3]; Methyl (meth)acrylate) [wt %] | Maximum solubility ([3]; Styrene) [wt %] | 5% weight reduction temperature [4] [°C] | Maximum solubility ([3]; Dimethylacrylamide) [wt %] | Maximum solubility ([3]; Hexadiene) [wt %] | Maximum solubility ([3]; Vinyl acetate) [wt %] | 5% weight reduction temperature [5] [°C] | Absolute value of slope of absorption peak on long wavelength side in wavelength region of 350 to 390 nm [1] | Absorbance at absoprtion peak in wavelength region of 350 to 390 nm [6] | Absorbance at peak end [6] | Absorption wavelength at peak end [6] [nm] | Molar extinction coefficient at peak (maximum molar extinction coefficient: εmax) [6] [L/mol/cm] | Wave length at absorption peak in wavelength region of 350 to 390 nm (maximum absorption wavelength: λmax) [6] [nm] | Absolute value of slope of absorption peak on long wavelength side in wavelength region of 350 to 390 nm [6] | Structure (SMILES)
8 | 1.53 | 0.00617 | 423 | 15300 | 353 |  |  |  | 230 |  |  |  | 230 | 0.022 | 1.76 | 0.00722 | 430 | 16300 | 353 | 0.032 | Cc1cc(-n2nc3ccc(Cl)cc3n2)c(O)c(C(C)(C)C)c1 [Compound 12, reference compound]
9 | 1.83 | 0.0069 | 388 | 18300 | 341 |  | 11 | 21 | 249 | 10 | 2 | 11 |  | 0.038 | 1.83 | 0.0069 | 388 | 18300 | 341 | 0.038 | C=C(C)C(=O)OCCc1ccc(O)c(-n2nc3ccccc3n2)c1 [Compound 11, reference compound]
10 | 2.19 | 0.00728 | 422 | 21900 | 368 |  |  |  | 304 |  |  |  |  |  |  |  |  |  |  |  | C/C=C/C(=O)OCCCCCCSc1ccc2nn(-c3cc(C)cc(C(C)(C)C)c3O)nc2c1 [Compound 7]
